In PubChem BioAssay (NCI):
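Briefly, cells in 96-well plates were exposed to five compound concentrations for 48 h, and endpoints were estimated by linear interpolation. TGI marks complete inhibition of growth.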

Experiments:
Experiment in all cases: inhibition of tumour cell growth, NCI panel, 48 h
[1] = test system: OVCAR-4 ovarian
[2] = test system: NCI-H460 lung
[3] = test system: DU-145 prostate
[4] = test system: HCC-2998 colon
[5] = test system: BT-549 breast
[6] = test system: SK-MEL-5 melanoma
[7] = test system: HL-60(TB) leukemia
[8] = test system: OVCAR-8 ovarian
[9] = test system: LOX IMVI melanoma
[10] = test system: TK-10 renal
[11] = test system: NCI/ADR-RES ovarian
[12] = test system: HOP-62 NSCLC
[13] = test system: ACHN renal
[14] = test system: EKVX NSCLC
[15] = test system: HCT-116 colon
[16] = test system: CCRF-CEM leukemia
[17] = test system: K-562 leukemia
[18] = test system: CAKI-1 renal
[19] = test system: KM12 colon
[20] = test system: NCI-H522 lung
[21] = test system: MDA-MB-231 breast
[22] = test system: M14 melanoma
[23] = test system: NCI-H23 lung
[24] = test system: SK-MEL-2 melanoma
[25] = test system: SK-OV-3 ovarian
[26] = test system: UACC-62 melanoma
[27] = test system: SF-539 CNS
[28] = test system: HOP-92 NSCLC
[29] = test system: A549 NSCLC
[30] = test system: RXF 393 renal
[31] = test system: OVCAR-5 ovarian
[32] = test system: HT29 colon
[33] = test system: SN12C renal
[34] = test system: U251 CNS
[35] = test system: MCF7 breast
[36] = test system: NCI-H226 lung
[37] = test system: MOLT-4 leukemia
[38] = test system: 786-0 renal
[39] = test system: HCT-15 colon
[40] = test system: SR leukemia
[41] = test system: PC-3 prostate
[42] = test system: SF-295 CNS
[43] = test system: SW-620 colon
[44] = test system: MDA-N
[45] = test system: MDA-MB-435
[46] = test system: A498 renal
[47] = test system: OVCAR-3 ovarian
[48] = test system: COLO 205 colon
[49] = test system: IGROV1 ovarian
[50] = test system: SNB-75 CNS
[51] = test system: UACC-257 melanoma
[52] = test system: UO-31 renal
[53] = test system: SF-268 CNS
[54] = test system: SNB-19 CNS
[55] = test system: MALME-3M melanoma
[56] = test system: RPMI-8226 leukemia
[57] = test system: T-47D breast
[58] = test system: SK-MEL-28 melanoma
[59] = test system: HS 578T breast

`CN(C)C1(c2cc3ccccc3s2)CCCCC1` was tested, and the TGI [1] was greater than 100 µM, the TGI [2] was greater than 100 µM and the TGI [3] was greater than 100 µM. For the same molecule, the TGI [4] was 57 µM, the TGI [5] was greater than 100 µM and the TGI [6] was 33.3 µM. The TGI [7] was 0.0658 µM, the TGI [8] was greater than 100 µM and the TGI [9] was 60.9 µM. For the same molecule, the TGI [10] was greater than 100 µM, the TGI [11] was greater than 100 µM and the TGI [12] was greater than 100 µM. The TGI [13] was greater than 100 µM, the TGI [14] was greater than 100 µM and the TGI [15] was greater than 100 µM. It also gave a TGI [16] of 0.0223 µM, a TGI [17] of 65.8 µM and a TGI [18] greater than 100 µM. For the same molecule, the TGI [19] was greater than 100 µM, the TGI [20] was 41.7 µM and the TGI [21] was greater than 100 µM. For the same molecule, the TGI [22] was 35.7 µM, the TGI [23] was greater than 100 µM and the TGI [24] was 47.7 µM. For the same molecule, the TGI [25] was greater than 100 µM, the TGI [26] was 60.6 µM and the TGI [27] was greater than 100 µM. It also gave a TGI [28] of 63.6 µM, a TGI [29] greater than 100 µM and a TGI [30] of 84.6 µM. It also gave a TGI [31] greater than 100 µM, a TGI [32] greater than 100 µM and a TGI [33] greater than 100 µM. It also gave a TGI [34] greater than 100 µM, a TGI [35] greater than 100 µM and a TGI [36] greater than 100 µM. The TGI [37] was greater than 100 µM, the TGI [38] was 49.8 µM and the TGI [39] was greater than 100 µM. The TGI [40] was 46.5 µM, the TGI [41] was greater than 100 µM and the TGI [42] was greater than 100 µM. The TGI [43] was greater than 100 µM, the TGI [44] was greater than 100 µM and the TGI [45] was greater than 100 µM. It also gave a TGI [46] greater than 100 µM, a TGI [47] greater than 100 µM and a TGI [48] greater than 100 µM. It also gave a TGI [49] greater than 100 µM, a TGI [50] greater than 100 µM and a TGI [51] of 80.4 µM. It also gave a TGI [52] greater than 100 µM, a TGI [53] of 52 µM and a TGI [54] greater than 100 µM.
For `O=C(NCCCl)NCc1ccccc1`, the TGI [1] was greater than 100 µM, the TGI [2] was greater than 100 µM and the TGI [3] was greater than 100 µM. For the same molecule, the TGI [4] was greater than 100 µM, the TGI [6] was greater than 100 µM and the TGI [7] was greater than 100 µM. The TGI [8] was greater than 100 µM, the TGI [9] was greater than 100 µM and the TGI [11] was greater than 100 µM. It also gave a TGI [55] greater than 100 µM, a TGI [56] greater than 100 µM and a TGI [12] greater than 100 µM. The TGI [13] was greater than 100 µM, the TGI [14] was greater than 100 µM and the TGI [15] was greater than 100 µM. For the same molecule, the TGI [16] was greater than 100 µM, the TGI [17] was greater than 100 µM and the TGI [57] was greater than 100 µM. It also gave a TGI [58] greater than 100 µM, a TGI [18] greater than 100 µM and a TGI [19] greater than 100 µM. It also gave a TGI [20] greater than 100 µM, a TGI [21] greater than 100 µM and a TGI [23] greater than 100 µM. The TGI [59] was greater than 100 µM, the TGI [24] was greater than 100 µM and the TGI [25] was greater than 100 µM. The TGI [26] was greater than 100 µM, the TGI [28] was greater than 100 µM and the TGI [29] was greater than 100 µM. For the same molecule, the TGI [30] was greater than 100 µM, the TGI [31] was greater than 100 µM and the TGI [32] was greater than 100 µM. For the same molecule, the TGI [33] was greater than 100 µM, the TGI [34] was greater than 100 µM and the TGI [35] was greater than 100 µM. It also gave a TGI [36] greater than 100 µM, a TGI [37] greater than 100 µM and a TGI [38] greater than 100 µM. For the same molecule, the TGI [39] was greater than 100 µM, the TGI [40] was greater than 100 µM and the TGI [41] was greater than 100 µM. It also gave a TGI [42] greater than 100 µM, a TGI [43] greater than 100 µM and a TGI [44] greater than 100 µM. For the same molecule, the TGI [45] was greater than 100 µM, the TGI [46] was greater than 100 µM and the TGI [47] was greater than 100 µM. It also gave a TGI [48] greater than 100 µM, a TGI [49] greater than 100 µM and a TGI [50] greater than 100 µM. The TGI [51] was greater than 100 µM, the TGI [52] was greater than 100 µM and the TGI [53] was greater than 100 µM. It also gave a TGI [54] greater than 100 µM.
Work on `CN1C(=O)[C@@H]2[C@@H]3c4ccccc4N[C@@H]3c3[nH]c4ccccc4c3[C@@H]2C1=O` yielded a TGI [1] of 54.3 µM, a TGI [2] of 31.4 µM and a TGI [3] greater than 100 µM. The TGI [4] was 40.3 µM, the TGI [5] was 53.6 µM and the TGI [6] was 25 µM. It also gave a TGI [8] of 63.1 µM, a TGI [9] of 46.6 µM and a TGI [10] of 77.6 µM. For the same molecule, the TGI [11] was 52 µM, the TGI [56] was 47 µM and the TGI [12] was 43.5 µM. It also gave a TGI [13] of 49.9 µM, a TGI [14] greater than 100 µM and a TGI [15] of 74.9 µM. The TGI [16] was 46.5 µM, the TGI [17] was 74.7 µM and the TGI [58] was 67.9 µM. It also gave a TGI [18] greater than 100 µM, a TGI [21] of 63.2 µM and a TGI [23] of 28.6 µM. The TGI [59] was 76.5 µM, the TGI [24] was 33.1 µM and the TGI [25] was 66.7 µM. The TGI [26] was 32.4 µM, the TGI [27] was 39.3 µM and the TGI [28] was 59.7 µM. The TGI [29] was 65.1 µM, the TGI [30] was 64.4 µM and the TGI [31] was 64.2 µM. It also gave a TGI [32] greater than 100 µM, a TGI [33] greater than 100 µM and a TGI [34] of 66.3 µM. The TGI [35] was greater than 100 µM, the TGI [36] was greater than 100 µM and the TGI [37] was 55.6 µM. The TGI [39] was 50.1 µM, the TGI [40] was 59.3 µM and the TGI [41] was 50.5 µM. The TGI [42] was 47 µM, the TGI [43] was greater than 100 µM and the TGI [44] was greater than 100 µM. The TGI [45] was 64.7 µM, the TGI [46] was 65.3 µM and the TGI [47] was 40 µM. It also gave a TGI [48] of 36.5 µM, a TGI [49] of 26.9 µM and a TGI [50] of 85.8 µM. The TGI [51] was 48.9 µM, the TGI [52] was 43.9 µM and the TGI [53] was 92.6 µM. The TGI [54] was greater than 100 µM.
Work on `O=c1cc(NNc2cccc(F)c2)[nH]c(=S)[nH]1` yielded a TGI [1] greater than 100 µM, a TGI [2] greater than 100 µM and a TGI [3] greater than 100 µM. For the same molecule, the TGI [4] was greater than 100 µM, the TGI [5] was greater than 100 µM and the TGI [6] was greater than 100 µM. The TGI [7] was greater than 100 µM, the TGI [8] was greater than 100 µM and the TGI [9] was greater than 100 µM. For the same molecule, the TGI [10] was greater than 100 µM, the TGI [11] was greater than 100 µM and the TGI [55] was greater than 100 µM. For the same molecule, the TGI [56] was greater than 100 µM, the TGI [12] was greater than 100 µM and the TGI [13] was greater than 100 µM. It also gave a TGI [14] greater than 100 µM, a TGI [15] greater than 100 µM and a TGI [17] greater than 100 µM. It also gave a TGI [58] greater than 100 µM, a TGI [19] greater than 100 µM and a TGI [21] greater than 100 µM. The TGI [22] was greater than 100 µM, the TGI [59] was greater than 100 µM and the TGI [27] was greater than 100 µM. The TGI [28] was 99.5 µM, the TGI [29] was greater than 100 µM and the TGI [31] was greater than 100 µM. It also gave a TGI [32] greater than 100 µM, a TGI [33] greater than 100 µM and a TGI [34] greater than 100 µM. The TGI [35] was greater than 100 µM, the TGI [36] was greater than 100 µM and the TGI [38] was greater than 100 µM. For the same molecule, the TGI [39] was greater than 100 µM, the TGI [40] was greater than 100 µM and the TGI [41] was greater than 100 µM. For the same molecule, the TGI [42] was greater than 100 µM, the TGI [43] was greater than 100 µM and the TGI [44] was greater than 100 µM. The TGI [45] was greater than 100 µM, the TGI [46] was greater than 100 µM and the TGI [47] was greater than 100 µM. It also gave a TGI [48] greater than 100 µM, a TGI [49] greater than 100 µM and a TGI [51] greater than 100 µM. It also gave a TGI [52] greater than 100 µM, a TGI [53] greater than 100 µM and a TGI [54] greater than 100 µM.
